Test results published in the supplement of paper PMC10307832.

Experiments:
Assay in all cases: relative viability (nuclei count vs DMSO), 5 days (fraction); higher = more cells survive
NCI-H1993 = system: NCI-H1993
Summary of the method: (§1)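 Lung cancer cell lines in 1536-well plates got either a single drug or a fixed anchor-drug dose together with five library-drug doses (not always all listed) in √10 steps, by pin tool, on the day after seeding. Nuclei were counted after 5 days, and relative viability is the treated-to-vehicle ratio of nuclei counts. Values are medians of duplicate plates.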

LXF-289 = system: LXF-289
Summary of the method: as §1

NCI-H2023 = system: NCI-H2023
Summary of the method: as §1

COR-L 105 = system: COR-L 105
Summary of the method: as §1

HOP-62 = system: HOP-62
Summary of the method: as §1

ChaGo-K-1 = system: ChaGo-K-1
Summary of the method: as §1

HCC-15 = system: HCC-15
Summary of the method: as §1

EPLC-272H = system: EPLC-272H
Summary of the method: as §1

EMC-BAC-2 = system: EMC-BAC-2
Summary of the method: as §1

NCI-H441 = system: NCI-H441
Summary of the method: as §1

UMC-11 = system: UMC-11
Summary of the method: as §1

HCC-78 = system: HCC-78
Summary of the method: as §1

NCI-H1915 = system: NCI-H1915
Summary of the method: as §1

NCI-H1755 = system: NCI-H1755
Summary of the method: as §1

ABC-1 = system: ABC-1
Summary of the method: as §1

NCI-H1666 = system: NCI-H1666
Summary of the method: as §1

NCI-H2126 = system: NCI-H2126
Summary of the method: as §1

NCI-H322M = system: NCI-H322M
Summary of the method: as §1

NCI-H2085 = system: NCI-H2085
Summary of the method: as §1

NCI-H1975 = system: NCI-H1975
Summary of the method: as §1

CAL-12T = system: CAL-12T
Summary of the method: as §1

NCI-H3122 = system: NCI-H3122
Summary of the method: as §1

SMILES: CC1(C)CCC(c2ccc(Cl)cc2)=C(CN2CCN(c3ccc(C(=O)NS(=O)(=O)c4ccc(N[C@H](CCN5CCOCC5)CSc5ccccc5)c(S(=O)(=O)C(F)(F)F)c4)cc3)CC2)C1 [Navitoclax] + CC(C)C[C@H](NC(=O)[C@H](Cc1ccccc1)NC(=O)c1cnccn1)B(O)O [Bortezomib] (partner 0.002 µM)
- relative viability (NCI-H1993; first compound 0.005 µM): 1.11
- relative viability (NCI-H1993; first compound 0.01581 µM): 1.58
- relative viability (NCI-H1993; first compound 0.05 µM): 0.961
- relative viability (NCI-H1993; first compound 0.1581 µM): 0.958
- relative viability (NCI-H1993; first compound 0.5 µM): 1.06
- relative viability (LXF-289; first compound 0.005 µM): 0.989
- relative viability (LXF-289; first compound 0.01581 µM): 1.05
- relative viability (LXF-289; first compound 0.05 µM): 0.928
- relative viability (LXF-289; first compound 0.1581 µM): 0.967
- relative viability (LXF-289; first compound 0.5 µM): 0.959
- relative viability (NCI-H2023; first compound 0.005 µM): 1.06
- relative viability (NCI-H2023; first compound 0.01581 µM): 1.18
- relative viability (NCI-H2023; first compound 0.05 µM): 0.857
- relative viability (NCI-H2023; first compound 0.1581 µM): 0.906
- relative viability (NCI-H2023; first compound 0.5 µM): 0.938
- relative viability (COR-L 105; first compound 0.005 µM): 0.977
- relative viability (COR-L 105; first compound 0.01581 µM): 1.31
- relative viability (COR-L 105; first compound 0.05 µM): 0.712
- relative viability (COR-L 105; first compound 0.1581 µM): 0.875
- relative viability (COR-L 105; first compound 0.5 µM): 0.584
- relative viability (HOP-62; first compound 0.005 µM): 0.575
- relative viability (HOP-62; first compound 0.01581 µM): 0.818
- relative viability (HOP-62; first compound 0.05 µM): 0.82
- relative viability (HOP-62; first compound 0.1581 µM): 0.85
- relative viability (HOP-62; first compound 0.5 µM): 1.1
- relative viability (ChaGo-K-1; first compound 0.005 µM): 0.907
- relative viability (ChaGo-K-1; first compound 0.01581 µM): 1.01
- relative viability (ChaGo-K-1; first compound 0.05 µM): 0.91
- relative viability (ChaGo-K-1; first compound 0.1581 µM): 0.959
- relative viability (ChaGo-K-1; first compound 0.5 µM): 1.04
- relative viability (HCC-15; first compound 0.005 µM): 0.941
- relative viability (HCC-15; first compound 0.01581 µM): 0.995
- relative viability (HCC-15; first compound 0.05 µM): 0.85
- relative viability (HCC-15; first compound 0.1581 µM): 1.06
- relative viability (HCC-15; first compound 0.5 µM): 1
- relative viability (EPLC-272H; first compound 0.005 µM): 0.925
- relative viability (EPLC-272H; first compound 0.1581 µM): 0.988
- relative viability (EPLC-272H; first compound 0.5 µM): 0.887
- relative viability (EMC-BAC-2; first compound 0.005 µM): 1.04
- relative viability (EMC-BAC-2; first compound 0.01581 µM): 1.19
- relative viability (EMC-BAC-2; first compound 0.05 µM): 1.01
- relative viability (EMC-BAC-2; first compound 0.1581 µM): 1.03
- relative viability (EMC-BAC-2; first compound 0.5 µM): 1.12
- relative viability (NCI-H441; first compound 0.005 µM): 0.349
- relative viability (NCI-H441; first compound 0.01581 µM): 0.737
- relative viability (NCI-H441; first compound 0.05 µM): 0.379
- relative viability (NCI-H441; first compound 0.1581 µM): 0.424
- relative viability (NCI-H441; first compound 0.5 µM): 0.496
- relative viability (UMC-11; first compound 0.005 µM): 0.629
- relative viability (UMC-11; first compound 0.01581 µM): 0.8
- relative viability (UMC-11; first compound 0.1581 µM): 0.661
- relative viability (UMC-11; first compound 0.5 µM): 0.311
- relative viability (HCC-78; first compound 0.005 µM): 0.582
- relative viability (HCC-78; first compound 0.01581 µM): 0.611
- relative viability (HCC-78; first compound 0.05 µM): 0.404
- relative viability (HCC-78; first compound 0.1581 µM): 0.45
- relative viability (HCC-78; first compound 0.5 µM): 0.469
- relative viability (NCI-H1915; first compound 0.005 µM): 0.969
- relative viability (NCI-H1915; first compound 0.01581 µM): 0.925
- relative viability (NCI-H1915; first compound 0.05 µM): 0.82
- relative viability (NCI-H1915; first compound 0.1581 µM): 0.865
- relative viability (NCI-H1915; first compound 0.5 µM): 0.929
- relative viability (NCI-H1755; first compound 0.005 µM): 0.929
- relative viability (NCI-H1755; first compound 0.01581 µM): 1.01
- relative viability (NCI-H1755; first compound 0.05 µM): 0.723
- relative viability (NCI-H1755; first compound 0.1581 µM): 0.903
- relative viability (NCI-H1755; first compound 0.5 µM): 0.924
- relative viability (ABC-1; first compound 0.005 µM): 0.28
- relative viability (ABC-1; first compound 0.01581 µM): 0.286
- relative viability (ABC-1; first compound 0.05 µM): 0.265
- relative viability (ABC-1; first compound 0.1581 µM): 0.254
- relative viability (ABC-1; first compound 0.5 µM): 0.216
- relative viability (NCI-H1666; first compound 0.005 µM): 0.791
- relative viability (NCI-H1666; first compound 0.01581 µM): 0.825
- relative viability (NCI-H1666; first compound 0.05 µM): 0.764
- relative viability (NCI-H1666; first compound 0.1581 µM): 0.782
- relative viability (NCI-H1666; first compound 0.5 µM): 0.805
- relative viability (NCI-H2126; first compound 0.005 µM): 1.08
- relative viability (NCI-H2126; first compound 0.01581 µM): 1.12
- relative viability (NCI-H2126; first compound 0.05 µM): 1.07
- relative viability (NCI-H2126; first compound 0.1581 µM): 1.12
- relative viability (NCI-H2126; first compound 0.5 µM): 1.15
- relative viability (NCI-H322M; first compound 0.005 µM): 1.21
- relative viability (NCI-H322M; first compound 0.01581 µM): 1.33
- relative viability (NCI-H322M; first compound 0.05 µM): 1.38
- relative viability (NCI-H322M; first compound 0.1581 µM): 1.21
- relative viability (NCI-H322M; first compound 0.5 µM): 1.22
- relative viability (NCI-H2085; first compound 0.005 µM): 0.977
- relative viability (NCI-H2085; first compound 0.01581 µM): 1.09
- relative viability (NCI-H2085; first compound 0.05 µM): 0.855
- relative viability (NCI-H2085; first compound 0.1581 µM): 1.15
- relative viability (NCI-H2085; first compound 0.5 µM): 0.978
- relative viability (NCI-H1975; first compound 0.005 µM): 0.389
- relative viability (NCI-H1975; first compound 0.01581 µM): 0.354
- relative viability (NCI-H1975; first compound 0.05 µM): 0.381
- relative viability (NCI-H1975; first compound 0.1581 µM): 0.258
- relative viability (NCI-H1975; first compound 0.5 µM): 0.255
- relative viability (CAL-12T; first compound 0.005 µM): 0.887
- relative viability (CAL-12T; first compound 0.01581 µM): 0.711
- relative viability (CAL-12T; first compound 0.05 µM): 0.989
- relative viability (CAL-12T; first compound 0.1581 µM): 0.853
- relative viability (CAL-12T; first compound 0.5 µM): 0.941
- relative viability (NCI-H3122; first compound 0.005 µM): 1.04
- relative viability (NCI-H3122; first compound 0.01581 µM): 1.02
- relative viability (NCI-H3122; first compound 0.05 µM): 1.04
- relative viability (NCI-H3122; first compound 0.1581 µM): 1.03
- relative viability (NCI-H3122; first compound 0.5 µM): 1.01
